Source: ChEMBL document CHEMBL3044572, “Discovery of 2-(4-cyano-3-trifluoromethylphenyl amino)-4-(4-quinazolinyloxy)-6-piperazinyl(piperidinyl)-s-triazines as potential antibacterial agents” (2012)
≈ marks a conversion by molar mass, not a printed value. Calls of active or inactive are those of the source. The rule behind the calls is not given here.

Tests used:
[1] = test system: Candida albicans; assay: Antimicrobial activity against Candida albicans MTCC 183 by agar streak dilution method; assay type: functional
[2] = test system: Staphylococcus aureus; assay: Antimicrobial activity against Staphylococcus aureus MTCC 96 by paper-disk diffusion method; assay type: functional
[3] = test system: Salmonella typhi; assay: Antimicrobial activity against Salmonella enterica subsp. enterica serovar Typhi MTCC 733 by paper disk diffusion method; assay type: functional
[4] = test system: Pseudomonas aeruginosa; assay: Antimicrobial activity against Pseudomonas aeruginosa MTCC 741 by agar streak dilution method; assay type: functional
[5] = test system: Aspergillus niger; assay: Antimicrobial activity against Aspergillus niger MTCC 282 by paper-disk diffusion method; assay type: functional
[6] = test system: Proteus vulgaris; assay: Antimicrobial activity against Proteus vulgaris MTCC 1771 by agar streak dilution method; assay type: functional
[7] = test system: Klebsiella pneumoniae; assay: Antimicrobial activity against Klebsiella pneumoniae MTCC 109 by paper disk diffusion method; assay type: functional
[8] = test system: Proteus vulgaris; assay: Antimicrobial activity against Proteus vulgaris MTCC 1771 by paper disk diffusion method; assay type: functional
[9] = test system: Aspergillus fumigatus; assay: Antimicrobial activity against Aspergillus fumigatus MTCC 343 by paper-disk diffusion method; assay type: functional
[10] = test system: Mycobacterium tuberculosis; assay: Antimicrobial activity against Mycobacterium tuberculosis H37Rv by BACTEC MGIT method; assay type: functional; details: Mycobacterium tuberculosis, H37Rv
[11] = test system: Klebsiella pneumoniae; assay: Antimicrobial activity against Klebsiella pneumoniae MTCC 109 by agar streak dilution method; assay type: functional
[12] = test system: Mycobacterium tuberculosis; assay: Antimicrobial activity against Mycobacterium tuberculosis H37Rv at 100 ug/ml by BACTEC MGIT method; assay type: functional, organism-based
[13] = test system: Aspergillus clavatus; assay: Antimicrobial activity against Aspergillus clavatus MTCC 1323 by paper disk diffusion method; assay type: functional
[14] = test system: Bacillus cereus; assay: Antimicrobial activity against Bacillus cereus MTCC 619 by paper disk diffusion method; assay type: functional
[15] = test system: Bacillus cereus; assay: Antimicrobial activity against Bacillus cereus MTCC 619 by agar streak dilution method; assay type: functional
[16] = test system: Shigella flexneri; assay: Antimicrobial activity against Shigella flexneri MTCC 1457 by paper disk diffusion method; assay type: functional
[17] = test system: Pseudomonas aeruginosa; assay: Antimicrobial activity against Pseudomonas aeruginosa MTCC 741 at 100 ug/ml by paper disk diffusion method; assay type: functional, organism-based
[18] = test system: Aspergillus niger; assay: Antimicrobial activity against Aspergillus niger MTCC 282 by agar streak dilution method; assay type: functional
[19] = test system: Escherichia coli; assay: Antimicrobial activity against Escherichia coli MTCC 739 by paper disk diffusion method; assay type: functional
[20] = test system: Shigella flexneri; assay: Antimicrobial activity against Shigella flexneri MTCC 1457 by agar streak dilution method; assay type: functional
[21] = test system: Candida albicans; assay: Antimicrobial activity against Candida albicans MTCC 183 by paper-disk diffusion method; assay type: functional
[22] = test system: Staphylococcus aureus; assay: Antimicrobial activity against Staphylococcus aureus MTCC 96 by agar streak dilution method; assay type: functional
[23] = test system: Aspergillus fumigatus; assay: Antimicrobial activity against Aspergillus fumigatus MTCC 343 by agar streak dilution method; assay type: functional
[24] = test system: Escherichia coli; assay: Antimicrobial activity against Escherichia coli MTCC 739 by agar streak dilution method; assay type: functional
[25] = test system: Mycobacterium tuberculosis; assay: Antimicrobial activity against Mycobacterium tuberculosis H37Rv by Lowenstein and Jensen method; assay type: functional; details: for MIC: Mycobacterium tuberculosis, H37Rv
[26] = test system: Aspergillus clavatus; assay: Antimicrobial activity against Aspergillus clavatus MTCC 1323 by agar streak dilution method; assay type: functional
[27] = test system: Pseudomonas aeruginosa; assay: Antimicrobial activity against Pseudomonas aeruginosa MTCC 741 by paper disk diffusion method; assay type: functional
[28] = test system: Salmonella typhi; assay: Antimicrobial activity against Salmonella enterica subsp. enterica serovar Typhi MTCC 733 by agar streak dilution method; assay type: functional
[29] = test system: Shigella flexneri; assay: Antimicrobial activity against Shigella flexneri MTCC 1457 at 100 ug/ml by paper-disk diffusion method; assay type: functional, organism-based
[30] = test system: Klebsiella pneumoniae; assay: Antimicrobial activity against Klebsiella pneumoniae MTCC 109 at 100 ug/ml by paper disk diffusion method; assay type: functional, organism-based
[31] = test system: Aspergillus fumigatus; assay: Antimicrobial activity against Aspergillus fumigatus MTCC 343 at 100 ug/ml by paper-disk diffusion method; assay type: functional, organism-based
[32] = test system: Escherichia coli; assay: Antimicrobial activity against Escherichia coli MTCC 739 at 100 ug/ml by paper-disk diffusion method; assay type: functional, organism-based

SMILES	MIC [1] [µg/mL]	inhibition zone (IZ) [2] [mm]	inhibition zone (IZ) [3] [mm]	MIC [4] [µg/mL]	inhibition zone (IZ) [5] [mm]	MIC [6] [µg/mL]	inhibition zone (IZ) [8] [mm]	MIC [10] [µg/mL]	inhibition [12]	inhibition zone (IZ) [13] [mm]	inhibition zone (IZ) [14] [mm]	MIC [15] [µg/mL]	MIC [18] [µg/mL]	inhibition zone (IZ) [21] [mm]	MIC [22] [µg/mL]	inhibition (percent inhibition) [25] [%]	MIC [25] [µg/mL]	MIC [26] [µg/mL]	inhibition zone (IZ) [27] [mm]	MIC [28] [µg/mL]	other results
CC(=O)N1CCN(c2nc(Nc3ccc(C#N)c(C(F)(F)F)c3)nc(Oc3ncnc4ccccc34)n2)CC1	50 (≈ 93.4 µM)	27	24	12.5 (≈ 23.3 µM)	24	12.5 (≈ 23.3 µM)	25	> 6.25	inactive	24	26	6.25 (≈ 11.7 µM)	25 (≈ 46.7 µM)	24	12.5 (≈ 23.3 µM)	96	12.5 (≈ 23.3 µM)	12.5 (≈ 23.3 µM)	27	25 (≈ 46.7 µM)	inhibition zone (IZ) [7]: 25 mm; inhibition zone (IZ) [9]: 24 mm; MIC [11]: 12.5 µg/mL (≈ 23.3 µM); inhibition zone (IZ) [16]: 22 mm; inhibition zone (IZ) [17]: inactive; inhibition zone (IZ) [19]: 28 mm; MIC [20]: 100 µg/mL (≈ 187 µM); MIC [23]: 25 µg/mL (≈ 46.7 µM); MIC [24]: 6.25 µg/mL (≈ 11.7 µM)
N#Cc1ccc(Nc2nc(Oc3ncnc4ccccc34)nc(N3CCN(c4ccccn4)CC3)n2)cc1C(F)(F)F	100 (≈ 175 µM)	22	21	100 (≈ 175 µM)	21	100 (≈ 175 µM)	21	> 6.25	inactive	20	24	25 (≈ 43.8 µM)	100 (≈ 175 µM)	21	50 (≈ 87.6 µM)	96	200 (≈ 351 µM)	100 (≈ 175 µM)	21	100 (≈ 175 µM)	inhibition zone (IZ) [29]: inactive; inhibition zone (IZ) [30]: inactive; inhibition zone (IZ) [31]: inactive; inhibition zone (IZ) [32]: inactive
